How the values were obtained:
[1] = cited from earlier work
[2] = Stability of danazol in analysis medium and receptor phase (3% cetrimide solution); format: physicochemical; settings: analysis medium (mobile phase) and receptor phase (3% cetrimide solution)

- Time for which danazol was stable [2]: 30 h
Structure (SMILES): C#C[C@]1(O)CC[C@H]2[C@@H]3CCC4=Cc5oncc5C[C@]4(C)[C@H]3CC[C@@]21C [Danazol, (17α)-Pregna-2,4-dien-20-yno[2,3-d]isoxazol-17β-ol]
- Bioavailability of oral danazol [1]: 11%

From patent publication US20110118226A1 (priority 2008, published 2011)
